Measured values: US9616040B2 (priority 2016, dated 2017)
Values joined by “and” are separate entries in the source; they are usually repeats but may differ in a detail not shown here. Identical values can stand only once.

How the values were obtained:
[1] = administered in large quantities; cited from earlier work
[2] = In vitro resorption of bovine vertebral cortical bone sections (weight change after incubation)
Description: Fresh bovine vertebral bone was cut into 1-3 g sections with a diamond saw blade. Non-cortical medullary bone was trimmed from the cortical bone and the sections were dried while incubated for 12 hours at 37° C. and then weighed. […] Bone sections were then dried and reweighed.

[3] = citric acid 0.001M, pH 3.25, 37° C., 96 hours
[4] = citric acid 0.01M, pH 2.62, 37° C., 96 hours
[5] = citric acid 0.1M, pH 2.08, 37° C., 96 hours
[6] = citric acid 1M, pH 1.57, 37° C., 96 hours
[7] = sodium citrate 0.001M, pH 7.65, 37° C., 96 hours
[8] = sodium citrate 0.01M, pH 7.78, 37° C., 96 hours
[9] = sodium citrate 0.1M, pH 9.27, 37° C., 96 hours
[10] = sodium citrate 1M, pH 8.67, 37° C., 96 hours

Question: With `O=C(O)CC(O)(CC(=O)O)C(=O)O` [Citrate] as the molecule, how does the toxicity [1] read?
Answer: non-toxic

Question: Which “% change” value [2, 3] does the source give for `O=C(O)CC(O)(CC(=O)O)C(=O)O` [Citric acid, citric acid] here?
Answer: +0.00349%

Question: And the Wt. change [2, 3]?
Answer: +0.00432 g

Question: And the “% change” value [2, 4]?
Answer: −0.04435%

Question: And the Wt. change [2, 4]?
Answer: -0.06128 g

Question: What about the “% change” value [2, 5] of the same molecule?
Answer: −0.1198%

Question: And the Wt. change [2, 5]?
Answer: -0.1916 g

Question: And the “% change” value [2, 6]?
Answer: −0.288%

Question: What about the Wt. change [2, 6] of the same molecule?
Answer: -0.4863 g

Question: And the “dependence of bone resorption” value ([2]; citric acid, 37° C., 96 hours)?
Answer: pH dependent

Question: With `O=C([O-])CC(O)(CC(=O)[O-])C(=O)[O-].[Na+].[Na+].[Na+]` [Sodium citrate, sodium citrate] as the molecule, how does the “% change” value [2, 7] read?
Answer: −0.00037%

Question: And the Wt. change [2, 7]?
Answer: -0.00077 g

Question: What about the “% change” value [2, 8] of the same molecule?
Answer: −0.01319%

Question: And the Wt. change [2, 8]?
Answer: -0.03261 g

Question: What about the “% change” value ([2]; sodium citrate 0.1M, pH 9.27, 37° C.) of the same molecule?
Answer: −0.03159% and −0.00551%

Question: And the “% change” value [2, 9]?
Answer: −0.01116%

Question: What about the Wt. change [2, 9] of the same molecule?
Answer: -0.01593 g

Question: And the “% change” value ([2]; sodium citrate 0.125M, pH 9.20, 37° C.)?
Answer: −0.00109% and −0.03799%

Question: What about the “% change” value ([2]; sodium citrate 0.15M, pH 9.16, 37° C.) of the same molecule?
Answer: −0.04659% and −0.05754%

Question: What about the “% change” value ([2]; sodium citrate 0.25M, pH 9.12, 37° C.) of the same molecule?
Answer: −0.00373% and −0.01174%

Question: And the “% change” value ([2]; sodium citrate 0.55M, pH 8.68, 37° C.)?
Answer: −0.00196% and −0.01386%

Question: What about the “% change” value [2, 10] of the same molecule?
Answer: −0.01873%

Question: And the Wt. change [2, 10]?
Answer: -0.04881 g

Question: What about the “molarity of greatest resorption of bone” value ([2]; sodium citrate, 37° C., 168 hours) of the same molecule?
Answer: 0.15 M
